Source: PubChem BioAssay (NCI)
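Assay format: 96-well plates, 48-hour exposure. TGI is the concentration that stops growth completely.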

Columns and labels:
Assay in all cases: inhibition of tumour cell growth, NCI panel, 48 h
786-0 renal = system: 786-0 renal
A498 renal = system: A498 renal
A549 NSCLC = system: A549 NSCLC
ACHN renal = system: ACHN renal
BT-549 breast = system: BT-549 breast
CAKI-1 renal = system: CAKI-1 renal
CCRF-CEM leukemia = system: CCRF-CEM leukemia
COLO 205 colon = system: COLO 205 colon
DU-145 prostate = system: DU-145 prostate
EKVX NSCLC = system: EKVX NSCLC
HCC-2998 colon = system: HCC-2998 colon
HCT-116 colon = system: HCT-116 colon
HCT-15 colon = system: HCT-15 colon
HL-60(TB) leukemia = system: HL-60(TB) leukemia
HOP-62 NSCLC = system: HOP-62 NSCLC
HOP-92 NSCLC = system: HOP-92 NSCLC
HS 578T breast = system: HS 578T breast
HT29 colon = system: HT29 colon
IGROV1 ovarian = system: IGROV1 ovarian
K-562 leukemia = system: K-562 leukemia
KM12 colon = system: KM12 colon
LOX IMVI melanoma = system: LOX IMVI melanoma
M14 melanoma = system: M14 melanoma
MALME-3M melanoma = system: MALME-3M melanoma
MCF7 breast = system: MCF7 breast
MDA-MB-231 breast = system: MDA-MB-231 breast
MDA-MB-435 = system: MDA-MB-435
MDA-N = system: MDA-N
MOLT-4 leukemia = system: MOLT-4 leukemia
NCI-H226 lung = system: NCI-H226 lung
NCI-H23 lung = system: NCI-H23 lung
NCI-H460 lung = system: NCI-H460 lung
NCI-H522 lung = system: NCI-H522 lung
NCI/ADR-RES ovarian = system: NCI/ADR-RES ovarian
OVCAR-3 ovarian = system: OVCAR-3 ovarian
OVCAR-4 ovarian = system: OVCAR-4 ovarian
OVCAR-5 ovarian = system: OVCAR-5 ovarian
OVCAR-8 ovarian = system: OVCAR-8 ovarian
PC-3 prostate = system: PC-3 prostate
RPMI-8226 leukemia = system: RPMI-8226 leukemia
RXF 393 renal = system: RXF 393 renal
SF-268 CNS = system: SF-268 CNS
SF-295 CNS = system: SF-295 CNS
SF-539 CNS = system: SF-539 CNS
SK-MEL-2 melanoma = system: SK-MEL-2 melanoma
SK-MEL-28 melanoma = system: SK-MEL-28 melanoma
SK-MEL-5 melanoma = system: SK-MEL-5 melanoma
SK-OV-3 ovarian = system: SK-OV-3 ovarian
SN12C renal = system: SN12C renal
SNB-19 CNS = system: SNB-19 CNS
SNB-75 CNS = system: SNB-75 CNS
SR leukemia = system: SR leukemia
SW-620 colon = system: SW-620 colon
T-47D breast = system: T-47D breast
TK-10 renal = system: TK-10 renal
U251 CNS = system: U251 CNS
UACC-257 melanoma = system: UACC-257 melanoma
UACC-62 melanoma = system: UACC-62 melanoma
UO-31 renal = system: UO-31 renal

O=[N+]([O-])c1ccc2c(c1)/C(=N/N=C1c3ccccc3Cc3ccccc31)c1cc([N+](=O)[O-])cc([N+](=O)[O-])c1-2
TGI (786-0 renal): 3.41 µM | TGI (A498 renal): 18.2 µM | TGI (A549 NSCLC): 25.3 µM | TGI (ACHN renal): 8.79 µM | TGI (BT-549 breast): 2.87 µM | TGI (CAKI-1 renal): 9.36 µM | TGI (CCRF-CEM leukemia): 5.55 µM | TGI (COLO 205 colon): 9.9 µM | TGI (DU-145 prostate): 13.7 µM | TGI (EKVX NSCLC): 12.3 µM | TGI (HCC-2998 colon): 12.8 µM | TGI (HCT-116 colon): 3.08 µM | TGI (HCT-15 colon): 4.99 µM | TGI (HL-60(TB) leukemia): > 22.8 µM | TGI (HOP-62 NSCLC): 7.01 µM | TGI (HOP-92 NSCLC): 8.61 µM | TGI (HS 578T breast): 6.81 µM | TGI (HT29 colon): 4.07 µM | TGI (IGROV1 ovarian): 3.04 µM | TGI (K-562 leukemia): 9.41 µM | TGI (KM12 colon): 6.34 µM | TGI (LOX IMVI melanoma): 4.6 µM | TGI (M14 melanoma): 6.28 µM | TGI (MALME-3M melanoma): 6.46 µM | TGI (MCF7 breast): 3.64 µM | TGI (MDA-MB-231 breast): 6.42 µM | TGI (MDA-MB-435): 3.38 µM | TGI (MDA-N): 9.38 µM | TGI (MOLT-4 leukemia): 5.99 µM | TGI (NCI-H226 lung): 31.5 µM | TGI (NCI-H23 lung): 3.85 µM | TGI (NCI-H460 lung): 14.1 µM | TGI (NCI-H522 lung): 3.25 µM | TGI (NCI/ADR-RES ovarian): 4.91 µM | TGI (OVCAR-3 ovarian): 3.11 µM | TGI (OVCAR-4 ovarian): 3.13 µM | TGI (OVCAR-5 ovarian): 6 µM | TGI (OVCAR-8 ovarian): 3.24 µM | TGI (PC-3 prostate): 10.2 µM | TGI (RPMI-8226 leukemia): > 100 µM | TGI (RXF 393 renal): 8.59 µM | TGI (SF-268 CNS): 5.81 µM | TGI (SF-295 CNS): 3.7 µM | TGI (SF-539 CNS): 7.21 µM | TGI (SK-MEL-2 melanoma): 24.8 µM | TGI (SK-MEL-28 melanoma): 9.05 µM | TGI (SK-MEL-5 melanoma): 15 µM | TGI (SK-OV-3 ovarian): 27.3 µM | TGI (SN12C renal): 3.23 µM | TGI (SNB-19 CNS): 23.3 µM | TGI (SNB-75 CNS): 9.28 µM | TGI (SR leukemia): > 25.7 µM | TGI (SW-620 colon): 9.38 µM | TGI (T-47D breast): 3.49 µM | TGI (TK-10 renal): 11.5 µM | TGI (U251 CNS): 10.7 µM | TGI (UACC-257 melanoma): 4.38 µM | TGI (UACC-62 melanoma): 6.46 µM | TGI (UO-31 renal): 4.41 µM

CCCN(C(=O)c1ccccc1)C(C#N)c1ccc(C(C#N)N(CCC)C(=O)c2ccccc2)cc1 (stereo unspecified)
TGI (786-0 renal): > 100 µM | TGI (A498 renal): > 100 µM | TGI (A549 NSCLC): > 100 µM | TGI (ACHN renal): > 100 µM | TGI (BT-549 breast): > 100 µM | TGI (CAKI-1 renal): > 100 µM | TGI (CCRF-CEM leukemia): > 100 µM | TGI (COLO 205 colon): > 100 µM | TGI (DU-145 prostate): > 100 µM | TGI (EKVX NSCLC): > 100 µM | TGI (HCC-2998 colon): > 100 µM | TGI (HCT-116 colon): > 100 µM | TGI (HCT-15 colon): > 100 µM | TGI (HL-60(TB) leukemia): > 100 µM | TGI (HOP-62 NSCLC): 99.3 µM | TGI (HOP-92 NSCLC): 64.4 µM | TGI (HS 578T breast): 86.7 µM | TGI (HT29 colon): > 100 µM | TGI (IGROV1 ovarian): > 100 µM | TGI (K-562 leukemia): > 100 µM | TGI (KM12 colon): > 100 µM | TGI (LOX IMVI melanoma): > 100 µM | TGI (M14 melanoma): > 100 µM | TGI (MALME-3M melanoma): > 100 µM | TGI (MCF7 breast): > 100 µM | TGI (MDA-MB-231 breast): > 100 µM | TGI (MDA-MB-435): > 100 µM | TGI (MDA-N): > 100 µM | TGI (MOLT-4 leukemia): > 100 µM | TGI (NCI-H226 lung): 65.3 µM | TGI (NCI-H23 lung): > 100 µM | TGI (NCI-H522 lung): > 100 µM | TGI (NCI/ADR-RES ovarian): > 100 µM | TGI (OVCAR-3 ovarian): > 100 µM | TGI (OVCAR-4 ovarian): 66.7 µM | TGI (OVCAR-5 ovarian): > 100 µM | TGI (OVCAR-8 ovarian): > 100 µM | TGI (PC-3 prostate): > 100 µM | TGI (RPMI-8226 leukemia): > 100 µM | TGI (RXF 393 renal): > 100 µM | TGI (SF-268 CNS): > 100 µM | TGI (SF-295 CNS): > 100 µM | TGI (SF-539 CNS): 87.6 µM | TGI (SK-MEL-2 melanoma): > 100 µM | TGI (SK-MEL-5 melanoma): > 100 µM | TGI (SK-OV-3 ovarian): > 100 µM | TGI (SN12C renal): > 100 µM | TGI (SNB-19 CNS): 74.9 µM | TGI (SNB-75 CNS): 73.3 µM | TGI (SR leukemia): > 100 µM | TGI (SW-620 colon): > 100 µM | TGI (T-47D breast): 85.7 µM | TGI (TK-10 renal): > 100 µM | TGI (U251 CNS): > 100 µM | TGI (UACC-257 melanoma): > 100 µM | TGI (UACC-62 melanoma): > 100 µM | TGI (UO-31 renal): > 100 µM
